In this experiment the target is T1, ΔF508-CFTR (Homo sapiens, UniProt P13569, DEL508-508).
T1 construct: expressed in transfected cells
In words: Membrane potential optical assay for ΔF508-CFTR correction. The experiment is classed as cell-based. The conditions noted are these: for % Efficacy / Emax: relative efficacy. From the text: Assays for Detecting and Measuring ΔF508-CFTR Correction Properties of Compounds
I) Membrane Potential Optical Methods for Assaying ΔF508-CFTR Modulation Properties of Compounds
The optical membrane potential assay utilized voltage-sensitive FRET sensors described by Gonzalez and Tsien (See Gonzalez, J. E. and R. Y. Tsien (1995) “Voltage sensing by fluorescence resonance energy transfer in single cells” Biophys J 69(4): 1272-80, and Gonzalez, J. E. and R. Y. Tsien (1997) “Improved indicators of cell membrane potential that use fluorescence resonance energy transfer” Chem Biol 4(4): 269-77) in combination with instrumentation for measuring fluorescence changes such as the Voltage/Ion Probe Reader (VIPR) (See, Gonzalez, J. E., K. Oades, et al. (1999) “Cell-based assays and instrumentation for screening ion-channel targets” Drug Discov Today 4(9): 431-439).
These voltage sensitive assays are based on the change in fluorescence resonant energy transfer (FRET) between the membrane-soluble, voltage-sensitive dye, DiSBAC2(3), and a fluorescent phospholipid, CC2-DMPE, which is attached to the outer leaflet of the plasma membrane and acts as a FRET donor. Changes in membrane potential (Vm) cause the negatively charged DiSBAC2(3) to redistribute across the plasma membrane and the amount of energy transfer from CC2-DMPE changes accordingly. The changes in fluorescence emission were monitored using VIPR™ II, which is an integrated liquid handler and fluorescent detector designed to conduct cell-based screens in 96- or 384-well microtiter plates.
NIH3T3 mouse fibroblasts stably expressing ΔF508-CFTR are used for optical measurements of membrane potential. The cells are maintained at 37° C. in 5% CO2 and 90% humidity in Dulbecco's modified Eagle's medium supplemented with 2 mM glutamine, 10% fetal bovine serum, 1×NEAA, β-ME, 1× pen/strep, and 25 mM HEPES in 175 cm^2 culture flasks. For all optical assays, the cells were seeded at 30,000/well in 384-well matrigel-coated plates and cultured for 2 hrs at 37° C. before culturing at 27° C. for 24 hrs. for the potentiator assay. For the correction assays, the cells are cultured at 27° C. or 37° C. with and without compounds for 16-24 hoursB) Electrophysiological Assays for assaying ΔF508-CFTR modulation properties of compounds

This note sets out measurements from patent US8962856B2, “Modulators of cystic fibrosis transmembrane conductance regulator” (Vertex Pharmaceuticals Incorporated, priority 2005, dated 2015).

T1 sequence (P13569 with tags, fused parts or gaps DEL508-508): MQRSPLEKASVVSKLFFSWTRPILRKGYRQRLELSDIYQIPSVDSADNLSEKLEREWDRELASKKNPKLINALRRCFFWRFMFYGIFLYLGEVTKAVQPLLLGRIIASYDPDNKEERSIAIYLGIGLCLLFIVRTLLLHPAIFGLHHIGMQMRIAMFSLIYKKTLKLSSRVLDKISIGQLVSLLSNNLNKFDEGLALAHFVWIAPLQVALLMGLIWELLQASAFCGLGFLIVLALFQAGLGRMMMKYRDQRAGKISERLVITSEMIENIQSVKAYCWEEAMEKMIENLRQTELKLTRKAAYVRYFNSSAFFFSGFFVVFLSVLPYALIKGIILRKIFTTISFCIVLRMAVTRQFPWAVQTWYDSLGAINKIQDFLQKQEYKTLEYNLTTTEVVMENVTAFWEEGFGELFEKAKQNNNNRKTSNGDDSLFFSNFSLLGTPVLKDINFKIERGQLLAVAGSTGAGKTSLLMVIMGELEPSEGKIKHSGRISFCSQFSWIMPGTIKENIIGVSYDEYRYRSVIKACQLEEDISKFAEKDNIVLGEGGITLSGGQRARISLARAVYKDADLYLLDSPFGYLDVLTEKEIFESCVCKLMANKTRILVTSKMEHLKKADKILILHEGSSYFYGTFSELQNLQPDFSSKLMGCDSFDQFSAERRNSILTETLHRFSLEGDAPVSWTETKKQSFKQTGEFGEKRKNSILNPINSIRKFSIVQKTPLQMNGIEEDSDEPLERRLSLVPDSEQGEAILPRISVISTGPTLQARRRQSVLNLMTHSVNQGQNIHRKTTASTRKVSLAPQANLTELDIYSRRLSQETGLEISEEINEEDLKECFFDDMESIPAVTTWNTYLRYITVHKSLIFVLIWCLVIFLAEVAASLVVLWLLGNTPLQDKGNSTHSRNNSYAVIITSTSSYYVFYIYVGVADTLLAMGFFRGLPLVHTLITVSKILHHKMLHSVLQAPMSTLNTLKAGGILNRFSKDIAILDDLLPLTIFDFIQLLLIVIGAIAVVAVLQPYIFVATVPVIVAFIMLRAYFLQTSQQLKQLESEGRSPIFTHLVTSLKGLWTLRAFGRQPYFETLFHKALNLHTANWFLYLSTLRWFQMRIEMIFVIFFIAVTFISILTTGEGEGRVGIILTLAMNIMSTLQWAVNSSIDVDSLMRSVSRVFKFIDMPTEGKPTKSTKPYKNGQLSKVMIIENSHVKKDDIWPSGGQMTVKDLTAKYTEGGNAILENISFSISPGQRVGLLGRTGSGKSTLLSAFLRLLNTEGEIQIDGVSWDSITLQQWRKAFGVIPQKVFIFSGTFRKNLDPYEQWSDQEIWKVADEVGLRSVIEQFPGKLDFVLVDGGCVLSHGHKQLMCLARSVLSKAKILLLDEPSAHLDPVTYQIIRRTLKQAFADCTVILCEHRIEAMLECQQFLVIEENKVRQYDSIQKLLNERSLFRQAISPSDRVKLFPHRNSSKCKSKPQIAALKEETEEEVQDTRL

In the case of “1-(Benzo[d][1,3]dioxol-6-yl)-N-(5-((R)-(2-chlorophenyl)((R)-3-hydroxypyrrolidin-1-yl)methyl)thiazol-2-yl)cyclopropanecarboxamide [Compound 2]”, the EC50 is 2000 to 20000 nM and the “% Efficacy” value was “+++ (“+++” means >100%)”.

In the case of “1-(Benzo[d][1,3]dioxol-6-yl)-N-(5-((S)-(2-chlorophenyl)((R)-3-hydroxypyrrolidin-1-yl)methyl)thiazol-2-yl)cyclopropanecarboxamide [Compound 1]”, the EC50 was less than 2000 nM and the “% Efficacy” value is on record as “+++ (“+++” means >100%)”. Regarding `O=C(Nc1ncc([C@H](c2ccc(Cl)cc2F)N2CC[C@@H](O)C2)s1)C1(c2ccc3c(c2)OCO3)CC1` [Compound 3], the EC50 was less than 2000 nM and the Emax is greater than 100%. `O=C(Nc1ncc([C@H](c2ccc(Cl)cc2F)N2CC[C@@H](O)C2)s1)C1(c2ccc3c(c2)OC(F)(F)O3)CC1` [Compound 4]: the EC50 was less than 2000 nM and the Emax was greater than 100%. Regarding `O=C(Nc1ncc([C@H](c2ccc(Cl)c(Cl)c2)N2CC[C@@H](O)C2)s1)C1(c2ccc3c(c2)OCO3)CC1` [Compound 5], the EC50 is less than 2000 nM and the Emax is greater than 100%.

With `O=C(Nc1ncc([C@@H](c2ccc(Cl)c(Cl)c2)N2CC[C@@H](O)C2)s1)C1(c2ccc3c(c2)OCO3)CC1` [Compound 6], the EC50 was less than 2000 nM and the Emax was greater than 100%.

Consider `Cc1nc(NC(=O)C2(c3ccc4c(c3)OCO4)CC2)sc1[C@@H](c1ccccc1Cl)N1CC[C@H](O)C1` [Compound 7], for which the EC50 is less than 2000 nM and the Emax was greater than 100%. In the same order, the values of `Cc1nc(NC(=O)C2(c3ccc4c(c3)OCO4)CC2)sc1[C@H](c1ccccc1Cl)N1CC[C@H](O)C1` [Compound 8] are less than 2000 nM and greater than 100%. Turning to `Cc1nc(NC(=O)C2(c3ccc4c(c3)OC(F)(F)O4)CC2)sc1[C@@H](c1ccccc1Cl)N1CC[C@H](O)C1` [Compound 9], the EC50 is less than 2000 nM and the Emax is greater than 100%.

Take `Cc1nc(NC(=O)C2(c3ccc4c(c3)OC(F)(F)O4)CC2)sc1[C@H](c1ccccc1Cl)N1CC[C@H](O)C1` [Compound 10]: the EC50 is less than 2000 nM and the Emax is greater than 100%. In the case of `O=C(Nc1ncc(C(c2ccccc2Cl)N2CC[C@@H](O)C2)s1)C1(c2ccc3c(c2)OC(F)(F)O3)CC1` (some centres unmarked) [Compound 11], the Emax is greater than 100%. As for `O=C(Nc1ncc([C@H](c2ccccc2Cl)N2CC[C@@H](O)C2)s1)C1(c2ccc3c(c2)OC(F)(F)O3)CC1` [Compound 11], the EC50 was less than 2000 nM. Take `O=C(Nc1ncc([C@H](c2ccccc2Cl)N2CC[C@@H](O)C2)s1)C1(c2ccc3c(c2)OCO3)CC1` [Compound 12]: the EC50 was less than 2000 nM and the Emax lay in the range of 25 to 100%. Taken in the same sequence, the figures for `O=C(Nc1ncc([C@@H](c2ccccc2Cl)N2CC[C@@H](O)C2)s1)C1(c2ccc3c(c2)OCO3)CC1` [Compound 13] were less than 2000 nM and greater than 100%.

The term EC50 denotes the concentration at which the effect is half-maximal. The Emax is the greatest response seen or fitted, relative to the assay's reference.
